The record followed here is ChEMBL document CHEMBL3832080, “DailyMed|setid=f3c5895f-f54b-43d4-9b38-7bfbdf8335b7 | CEFOTAXIME - cefotaxime injection, powder, for solution|WOCKHARDT USA LLC”.

SMILES strings stand for the structures.

In one series the test system is Homo sapiens. In words: (§1) Pharmacokinetics parameters for Cefotaxine evaluated after single IV or intramuscular (IM) administration of Cefotaxine to normal volunteers. Format: ADME, organism-based. Set-up: dose 1 g, dose 500 mg, dose 2 g, route iv, route im. The conditions noted are these: in vivo, im, dose 500 mg, dosed compound id 59, dosed compound name CEFOTAXIME, regimen Single dose, tissue Serum.

Series [1] can be described thus: as §1. Format: ADME, organism-based. Set-up: dose 1 g, dose 500 mg, dose 2 g, route iv, route im. To be noted: human, in vivo, regimen Single dose.
Setting [2] is: dose 1 g, dosed compound id 59, dosed compound name CEFOTAXIME, route im, tissue Serum.

Turning to `CO/N=C(\C(=O)N[C@@H]1C(=O)N2C(C(=O)[O-])=C(COC(C)=O)CS[C@H]12)c1csc(N)n1.[Na+]` [CEFOTAXIME SODIUM], in the series with Homo sapiens, the Tmax (as a rule, the time from dosing to the highest level) was 0.5 h and the t1/2 came out at 1 h. Further, in series [1] (dose 50 mg/kg, dosed compound id 59, dosed compound name CEFOTAXIME, route iv, study dosing duration 10 to 15 minutes, tissue Urine), the half-life (as a rule, the time needed for the level to fall by half in the phase considered) was 4.6 h. Further, in series [1] (setting [2]), the Tmax is 0.5 h and the half-life is 1 h. Further, in series [1] (dosed compound id 590, dosed compound name 14C-CEFOTAXIME, route iv, tissue Urine, read-out: Excretion), the dose excreted is 20 to 36%.
